# Data reported in patent US20230106719A1, “DISSOLVING AGENT” (NATIONAL UNIVERSITY CORPORATION HOKKAIDO UNIVERSITY, priority 2020, published 2023).
# Assay: Drug solubility in coconut oil, CAOM and related dissolving agents
# Assay type: physicochemical
smiles,measurement,setting,value
COc1cc(/C=C/C(=O)CC(=O)/C=C/c2ccc(O)c(OC)c2)ccc1O [curcumin],solubility of curcumin in CAOM relative to coconut oil,in CAOM versus coconut oil,6 times
same,solubility at 2 days,"oil or lipid, thermodynamic from solid, in coconut oil, room temperature, mean±SD n=3, read-out: solubility of curcumin in coconut oil",2440 ± 240 µg/mL
